# Assays:
# [1] = tested on: transgenic cotton plants containing the SAD2 gene (Coker 312); assay: Greenhouse spray of PCR-positive SAD2 transformed cotton plants with 2,4-D amine; type: in vivo; conditions: of 95 plants; 1 lb/acre acid equivalents (twice normal field rate); sprayed at squaring stage or later
# Text: The two binary vectors containing the SAD2 gene, pPZP211-PNPT-311-SAD2 and pPZP211-PNPT-512-SAD2, were individually introduced into the EHA 105 strain of Agrobacterium tumefaciens (Hood et al., Transgenic Research, 2:208-218 (1993)) by direct transformation as described by Walker-Peach and Velten, in Plant Molecular Biology Manual, section B1:1-19 (Gelvin, Shilperoort and Verma, eds., Kluwer Academic Publishers, Dordrecht, The Netherlands, 1994)). The constructs were subsequently introduced by Agrobacterium transfection into cotyledon explants from the cotton variety Coker 312 (Coker Seed Inc.). This was achieved by isolating sterile cotyledon tissue (derived from seedlings grown in culture from surface-sterilized seed as described by Trolinder and Gooden, Plant Cell Reports, 6:231-234 (1987)), generating explants (by use of a sterile hole punch), and submerging the explants in a 48-hour-old culture of EHA 105, containing the appropriate construct, grown at 28° C. […]
# A total of 111 kanamycin-resistant cotton seedlings were generated (44 were generated in the pPZP211-PNPT-311-SAD2 transformations, and 67 in the pPZP211-PNPT-512-SAD2 transformations). Each plant was analyzed for the presence of the SAD synthetic coding sequence and the NPTII coding sequence by PCR to ensure the integrity of the inserted DNA. […]
# [2] = tested on: SAD transgenic cotton plants; assay: Spray of seedlings from fertile SAD transgenic cotton lines, visual damage evaluation; type: in vivo; conditions: 1/2 lb/acre acid equivalents at 24 days, evaluated after 10-14 days
# Text: (§1) To verify that the inserted synthetic SAD genes were inheritable and to gain an indication of the number of gene insertions, seeds from the seven fertile SAD transgenic cotton plants were planted into hydroponic rock wool slabs (Hummert, St. Louis, Mo.) that had been saturated with Peters Professional water-soluble fertilizer (5-11-26 HYDRO-SOL, supplemented with calcium nitrate and magnesium sulfate to provide a complete nutrient compliment; Hummert, St. Louis, Mo.). The hydroponic rock wool slabs were placed on benches in a greenhouse, and nutrients were maintained at optimal levels using a non-recycling hydroponic watering system. Plants were grown under greenhouse conditions (28° C.±5° C. air temperature) for 24 days. At this point, the plants were removed to a spray hood, sprayed with 2,4-D amine at the normal field rate of 1/2 lb/acre acid equivalents, maintained in the hood for 24 hours to allow the 2,4-D to volatilize, and then placed back in the greenhouse.
# (§2) The negative control of Coker 312 that had been regenerated from tissue culture did show some signs of resistance, so these ratios are not to be considered as definitive measures of Mendelian inheritance of the SAD gene.
# [3] = tested on: transgenic 2,4-D resistant cotton containing the naturally-occurring tfdA gene construct; assay: Spray of 2,4-D res control seedlings, visual damage evaluation; type: in vivo; conditions: 55 plants, 1/2 lb/acre acid equivalents at 24 days, evaluated after 10-14 days
# Text: as §1, §2
# [4] = tested on: Coker 312 (not transgenic) regenerated from somatic embryos; assay: Spray of 2,4-D sens control seedlings, visual damage evaluation; type: in vivo, cotton; conditions: 45 plants, 1/2 lb/acre acid equivalents at 24 days, evaluated after 10-14 days
# Text: as §1, §2
# [5] = tested on: SAD transgenic cotton plants; assay: Respray of undamaged SAD plants with 2,4-D amine; type: in vivo; conditions: all 35 plants (5 from each of 7 SAD lines); resprayed at 1/2 lb/acre acid equivalents 14 days after first evaluation
# Method: (§3) Each plant tested positive for the SAD construct by PCR. These plants were grown for a further 14 days and then resprayed with 2,4-D amine at the normal field rate of 1/2 lb/acre acid equivalents. […] The 35 plants were grown to maturity, and seeds were collected.
# [6] = tested on: negative controls (cotton); assay: Respray event, negative controls; type: in vivo; conditions: all negative controls; 1/2 lb/acre acid equivalents
# Method: as §3
# [7] = tested on: plants; conditions: in vivo; cited from earlier work
compound,measurement,setting,value
"CNC.O=C(O)COc1ccc(Cl)cc1Cl [2,4-D amine]",plants that survived treatment with little or no herbicide damage,[1],22
same,No Damage (number of plants),"[2]; line 311-22-1-4, 43 plants",16
same,Severe damage (number of plants),"[2]; line 311-22-1-4, 43 plants",11
same,Some symptoms (number of plants),"[2]; line 311-22-1-4, 43 plants",16
same,No Damage (number of plants),"[2]; line 311-22-1-5, 47 plants",6
same,Severe damage (number of plants),"[2]; line 311-22-1-5, 47 plants",23
same,Some symptoms (number of plants),"[2]; line 311-22-1-5, 47 plants",18
same,No Damage (number of plants),"[2]; line 311-22-1-8, 56 plants",14
same,Severe damage (number of plants),"[2]; line 311-22-1-8, 56 plants",14
same,Some symptoms (number of plants),"[2]; line 311-22-1-8, 56 plants",28
same,No Damage (number of plants),"[2]; line 512-21-1-5, 56 plants",8
same,Severe damage (number of plants),"[2]; line 512-21-1-5, 56 plants",14
same,Some symptoms (number of plants),"[2]; line 512-21-1-5, 56 plants",34
same,No Damage (number of plants),"[2]; line 512-21-4-3, 30 plants",7
same,Severe damage (number of plants),"[2]; line 512-21-4-3, 30 plants",3
same,Some symptoms (number of plants),"[2]; line 512-21-4-3, 30 plants",20
same,No Damage (number of plants),"[2]; line 512-21-4-5, 41 plants",5
same,Severe damage (number of plants),"[2]; line 512-21-4-5, 41 plants",12
same,Some symptoms (number of plants),"[2]; line 512-21-4-5, 41 plants",24
same,No Damage (number of plants),"[2]; line 512-24-4-4, 63 plants",7
same,Severe damage (number of plants),"[2]; line 512-24-4-4, 63 plants",35
same,Some symptoms (number of plants),"[2]; line 512-24-4-4, 63 plants",21
same,No Damage (number of plants),[3],7
same,Severe damage (number of plants),[3],15
same,Some symptoms (number of plants),[3],33
same,No Damage (number of plants),[4],0
same,Severe damage (number of plants),[4],25
same,Some symptoms (number of plants),[4],20
same,damage following respray,[5],no damage
same,survival following respray,[6],did not survive
"Oc1ccc(Cl)cc1Cl [DCP, 2,4-dichlorophenol]","toxicity to plants relative to 2,4-D",[7],"much less toxic to plants than 2,4-D"

# Source: patent US20030154507A1, “Synthetic herbicide resistance gene” (priority 2001, published 2003)
